{"source": "patent US20120034613A1", "about": "“Apparatus and Method for Testing Relationships Between Gene Expression and Physical Appearance of Skin” (NSE Products, Inc., priority 2010, published 2012)", "tested_on": "EpidermFT™ Skin Model (EFT-400) full thickness skin cultures", "assay": "Affymetrix GeneChip HG U133 Plus 2.0 microarray global gene expression, agent-exposed vs untreated skin cultures", "assay_type": "cell-based, human", "conditions": "0.5% vs untreated, 24 hr; down"}
{"smiles": "OCc1ccccc1O[C@@H]1O[C@H](CO)[C@@H](O)[C@H](O)[C@H]1O", "note": "[Salicin, 2-(Hydroxymethyl)phenyl β-D-glucospyranoside]", "values": [{"measurement": "Fold change ABHD12 (228124_at)", "value": 3.821}, {"measurement": "Fold change ACAD8 (221669_s_at)", "value": 3.404}, {"measurement": "Fold change ACOX1 (209600_s_at)", "value": 3.361}, {"measurement": "Fold change ACOX1 (213501_at)", "value": 3.854}, {"measurement": "Fold change ACOX1 (227962_at)", "value": 3.737}, {"measurement": "Fold change ADAP2 (222876_s_at)", "value": 3.579}, {"measurement": "Fold change AGPAT9 (224480_s_at)", "value": 3.106}, {"measurement": "Fold change AHNAK2 (1558378_a_at)", "value": 3.138}, {"measurement": "Fold change AKTIP (223894_s_at)", "value": 3.08}, {"measurement": "Fold change ALDH3A2 (210544_s_at)", "value": 3.633}, {"measurement": "Fold change ALDH3B2 (204941_s_at)", "value": 3.429}, {"measurement": "Fold change ALOX15B (206714_at)", "value": 3.512}, {"measurement": "Fold change ANKFN1 (1553211_at)", "value": 3.62}, {"measurement": "Fold change ANKRD35 (231118_at)", "value": 3.392}, {"measurement": "Fold change ANKRD57 (219496_at)", "value": 3.699}, {"measurement": "Fold change APOBEC3B (206632_s_at)", "value": 3.0369}, {"measurement": "Fold change AQP3 (39248_at)", "value": 3.579}, {"measurement": "Fold change ARHGEF5 (204765_at)", "value": 3.689}, {"measurement": "Fold change ARL4A (205020_s_at)", "value": 3.913}, {"measurement": "Fold change ARL5A (218150_at)", "value": 3.293}, {"measurement": "Fold change ARL5A (226617_at)", "value": 3.1}, {"measurement": "Fold change ASPHD2 (227015_at)", "value": 3.321}, {"measurement": "Fold change BCL11A (210347_s_at)", "value": 3.112}, {"measurement": "Fold change BEND5 (219670_at)", "value": 3.381}, {"measurement": "Fold change BEX2 (224367_at)", "value": 3.212}, {"measurement": "Fold change BTBD16 (1552566_at)", "value": 3.232}, {"measurement": "Fold change C1orf106 (219010_at)", "value": 3.744}, {"measurement": "Fold change C1orf161 (1553333_at)", "value": 3.474}, {"measurement": "Fold change C2orf54 (220149_at)", "value": 3.333}, {"measurement": "Fold change C4orf32 (227856_at)", "value": 3.328}, {"measurement": "Fold change C10orf57 /// C10orf58 (224435_at)", "value": 3.829}, {"measurement": "Fold change C10orf99 (227735_s_at)", "value": 3.719}, {"measurement": "Fold change C19orf33 (223631_s_at)", "value": 3.241}, {"measurement": "Fold change C20orf74 (232500_at)", "value": 3.366}, {"measurement": "Fold change CA2 (209301_at)", "value": 3.433}, {"measurement": "Fold change CAMK1D (235626_at)", "value": 3.726}, {"measurement": "Fold change CARD10 (210026_s_at)", "value": 3.475}, {"measurement": "Fold change CCNB1 (228729_at)", "value": 3.349}, {"measurement": "Fold change CD9 (201005_at)", "value": 3.444}, {"measurement": "Fold change CDH3 (203256_at)", "value": 3.506}, {"measurement": "Fold change CDKN2B (236313_at)", "value": 3.737}, {"measurement": "Fold change CDS1 (226187_at)", "value": 3.08}, {"measurement": "Fold change CGN (223232_s_at)", "value": 3.873}, {"measurement": "Fold change CHAC2 (235117_at)", "value": 3.55}, {"measurement": "Fold change CHD7 (218829_s_at)", "value": 3.089}, {"measurement": "Fold change CLDN4 (201428_at)", "value": 3.454}, {"measurement": "Fold change CLTB (205172_x_at)", "value": 3.663}, {"measurement": "Fold change CLTB (211043_s_at)", "value": 3.446}, {"measurement": "Fold change COBLL1 (215393_s_at)", "value": 3.301}, {"measurement": "Fold change COL17A1 (204636_at)", "value": 3.576}, {"measurement": "Fold change CPEB3 (205773_at)", "value": 3.876}, {"measurement": "Fold change CTA-221G9.4 /// LOC100131004 (225525_at)", "value": 3.401}, {"measurement": "Fold change CYP2R1 (227109_at)", "value": 3.716}, {"measurement": "Fold change CYP27C1 (1568868_at)", "value": 3.64}, {"measurement": "Fold change D4S234E (209569_x_at)", "value": 3.313}, {"measurement": "Fold change D4S234E (209570_s_at)", "value": 3.871}, {"measurement": "Fold change DAAM1 (216060_s_at)", "value": 3.84}, {"measurement": "Fold change DAAM1 (226666_at)", "value": 3.519}, {"measurement": "Fold change DAPL1 (229290_at)", "value": 3.089}, {"measurement": "Fold change DGAT2 (224327_s_at)", "value": 3.427}, {"measurement": "Fold change DGAT2 (226064_s_at)", "value": 3.883}, {"measurement": "Fold change DHRS1 (213279_at)", "value": 3.907}, {"measurement": "Fold change DHRS11 (218756_s_at)", "value": 3.13}, {"measurement": "Fold change DLX3 (231778_at)", "value": 3.089}, {"measurement": "Fold change DOCK8 (225502_at)", "value": 3.608}, {"measurement": "Fold change DUOX1 (219597_s_at)", "value": 3.516}, {"measurement": "Fold change DUOXA1 (1554648_a_at)", "value": 3.865}, {"measurement": "Fold change EBP (213787_s_at)", "value": 3.0355}, {"measurement": "Fold change EFNA5 (214036_at)", "value": 3.139}, {"measurement": "Fold change EGR1 (201693_s_at)", "value": 3.681}, {"measurement": "Fold change EGR2 (205249_at)", "value": 3.497}, {"measurement": "Fold change ELOVL6 (204256_at)", "value": 3.121}, {"measurement": "Fold change ELOVL6 (210868_s_at)", "value": 3.441}, {"measurement": "Fold change ENC1 (201340_s_at)", "value": 3.246}, {"measurement": "Fold change EPB41L4A (228256_s_at)", "value": 3.298}, {"measurement": "Fold change EPHA4 (229374_at)", "value": 3.101}, {"measurement": "Fold change EPN3 (223895_s_at)", "value": 3.929}, {"measurement": "Fold change F3 (204363_at)", "value": 3.192}, {"measurement": "Fold change F11R (222354_at)", "value": 3.541}, {"measurement": "Fold change FA2H (219429_at)", "value": 3.37}, {"measurement": "Fold change FABP7 (205029_s_at)", "value": 3.263}, {"measurement": "Fold change FABP7 (205030_at)", "value": 3.804}, {"measurement": "Fold change FAM63A (221856_s_at)", "value": 3.1}, {"measurement": "Fold change FAM72A /// FAM72B /// GCUD2 (225834_at)", "value": 3.211}, {"measurement": "Fold change FAM83B (1563900_at)", "value": 3.497}, {"measurement": "Fold change FAM83D (225687_at)", "value": 3.895}, {"measurement": "Fold change FAM83H (226129_at)", "value": 3.739}, {"measurement": "Fold change FAM84B (225864_at)", "value": 3.566}, {"measurement": "Fold change FAM169A (235048_at)", "value": 3.759}, {"measurement": "Fold change FBXO3 (218432_at)", "value": 3.446}, {"measurement": "Fold change FCHSD1 (226698_at)", "value": 3.141}, {"measurement": "Fold change FERMT1 (218796_at)", "value": 3.784}, {"measurement": "Fold change FGFBP1 (205014_at)", "value": 3.406}, {"measurement": "Fold change FIGN (239710_at)", "value": 3.472}, {"measurement": "Fold change FLNB (208614_s_at)", "value": 3.765}, {"measurement": "Fold change FLVCR2 (219316_s_at)", "value": 3.532}, {"measurement": "Fold change FLVCR2 (222866_s_at)", "value": 3.373}, {"measurement": "Fold change FMO5 (205776_at)", "value": 3.223}, {"measurement": "Fold change FOXE1 (206912_at)", "value": 3.121}, {"measurement": "Fold change FXYD3 (202489_s_at)", "value": 3.827}, {"measurement": "Fold change GAB1 (229114_at)", "value": 3.301}, {"measurement": "Fold change GFOD1 (219821_s_at)", "value": 3.679}, {"measurement": "Fold change GGT6 (236225_at)", "value": 3.426}, {"measurement": "Fold change GJB6 (231771_at)", "value": 3.289}, {"measurement": "Fold change GM2A (35820_at)", "value": 3.763}, {"measurement": "Fold change GM2A (212737_at)", "value": 3.6714}, {"measurement": "Fold change GM2A (235678_at)", "value": 3.427}, {"measurement": "Fold change GPR37 (209631_s_at)", "value": 3.265}, {"measurement": "Fold change GPR126 (213094_at)", "value": 3.256}, {"measurement": "Fold change GPT2 (224839_s_at)", "value": 3.555}, {"measurement": "Fold change GRHL1 (222830_at)", "value": 3.044}, {"measurement": "Fold change GSTA4 (235405_at)", "value": 3.3}, {"measurement": "Fold change H19 (224646_x_at)", "value": 3.532}]}
